According to ChEMBL document CHEMBL1156449, “The nucleoside analog sangivamycin induces apoptotic cell death in breast carcinoma MCF7/adriamycin-resistant cells via protein kinase Cdelta and JNK activation” (J Biol Chem, 2007):
Active and inactive are the calls of the source. The rule behind the calls is not given here.

How the values were obtained:
[1] = Cell cycle arrest in human multidrug resistant MCF/ADR cells assessed as accumulation at S phase at 0.3 uM after 24 hrs by propidium fluorescence flow cytometry; format: functional, cell-based
MCF/ADR [2] = assay: Blockade of apoptosis induction in human multidrug resistant MCF/ADR cells at 0.3 uM after 48 hrs in presence of SP600125; format: functional, cell-based
MCF/ADR [3] = assay: Increase in Bcl-x/l levels in human multidrug resistant MCF/ADR cells at 0.3 uM by immunoblot analysis; format: functional, cell-based
[4] = Cell cycle arrest in human drug-sensitive MCF/WT cells assessed as accumulation at S phase at 0.3 uM after 48 hrs by propidium fluorescence flow cytometry; format: functional, cell-based
[5] = Cell cycle arrest in human drug-sensitive MCF/WT cells assessed as accumulation at G0/G1 phase at 0.3 uM after 24 hrs by propidium fluorescence flow cytometry; format: functional, cell-based
[6] = Cell cycle arrest in human drug-sensitive MCF/WT cells assessed as accumulation at G2/M phase at 0.3 uM after 48 hrs by propidium fluorescence flow cytometry; format: functional, cell-based
MCF/ADR [7] = assay: Reduction in induction of apoptosis in human multidrug resistant MCF/ADR cells assessed as suppression of PARP cleavage at 0.3 uM after 48 hrs by immunoblot analysis in presence of rottlerin; format: functional, cell-based
MDA-MB-231 = assay: Induction of apoptosis in human multidrug resistant MDA-MB-231 cells assessed as accumulation of PARP at 0.3 uM after 48 hrs by immunoblot analysis; format: functional, cell-based
[8] = target: Bcl-2-like protein 1 (Homo sapiens) (UniProt Q07817); assay: Inhibition of induction of Bcl-x/s phosphorylation in human multidrug resistant MCF/ADR cells at 0.3 uM after 48 hrs in presence of rottlerin; format: functional, cell-based
[9] = Effect on cell morphology in human multidrug resistant MCF/ADR cells assessed as floating cells with intact plasma membrane at 0.3 uM after 72 hrs by trypan blue dye exclusion test; format: functional
MCF/WT [10] = assay: Increase in wild-type full length p53 accumulation in human drug-sensitive MCF/WT cells at 0.3 uM by immunoblot analysis; format: functional, cell-based
[11] = Cell cycle arrest in human drug-sensitive MCF/WT cells assessed as accumulation at sub G0/G1 phase at 0.3 uM after 72 hrs by propidium fluorescence flow cytometry; format: functional, cell-based
[12] = Inhibition of nuclear protein kinase 1
[13] = Cell cycle arrest in human multidrug resistant MCF/ADR cells assessed as accumulation at G0/G1 phase at 0.3 uM after 72 hrs by propidium fluorescence flow cytometry; format: functional, cell-based
MCF/WT [14] = assay: Induction of apoptosis in human drug sensitive MCF/WT cells assessed as propidium iodide binding to phosphatidylserine at 0.3 uM after 6 hrs; format: functional, cell-based
[15] = Inhibition of PKA
MCF/ADR [16] = assay: Cytocidal effect in human multidrug resistant MCF/ADR cells assessed as decrease in number of viable cells at 30 nM after 6 days by MTT colorimetric assay; format: functional, cell-based
[17] = Cell cycle arrest in human multidrug resistant MCF/ADR cells assessed as accumulation at sub G0/G1 phase at 0.3 uM after 24 hrs by propidium fluorescence flow cytometry; format: functional, cell-based
MCF/ADR [18] = assay: Induction of apoptosis in human multidrug resistant MCF/ADR cells assessed as activation of caspase 6 at 0.3 uM by immunoblot analysis; format: functional, cell-based
[19] = target: T1, c-Jun N-terminal kinase, JNK (Homo sapiens) (UniProt P45983+P53779+P45984); assay: Induction of JNK activity in human multidrug resistant MCF/ADR cells assessed as mitochondrial localization of phosphorylated JNK with Bcl-x/l; format: cell-based
MCF/ADR [20] = assay: Increase in p21CIP accumulation in human multidrug resistant MCF/ADR cells at 0.3 uM after 48 hrs by immunoblot analysis; format: functional, cell-based
[21] = Cell cycle arrest in human drug-sensitive MCF/WT cells assessed as accumulation at G0/G1 phase at 0.3 uM after 48 hrs by propidium fluorescence flow cytometry; format: functional, cell-based
[22] = Cell cycle arrest in human drug-sensitive MCF/WT cells assessed as accumulation at G0/G1 phase at 0.3 uM after 72 hrs by propidium fluorescence flow cytometry; format: functional, cell-based
[23] = target: T1, c-Jun N-terminal kinase, JNK (Homo sapiens); assay: Effect on mitochondrial localization of phosphorylated JNK with Bcl-x/l in human multidrug resistant MCF/ADR cells assessed as enhanced JNK activity by Mitotracker red staining; format: cell-based
[24] = Cell cycle arrest in human drug-sensitive MCF/WT cells assessed as accumulation at S phase at 0.3 uM after 24 hrs by propidium fluorescence flow cytometry; format: functional, cell-based
MCF/WT [25] = assay: Increase in Bcl-x/l levels in human drug-sensitive MCF/WT cells at 0.3 uM by immunoblot analysis; format: functional, cell-based
[26] = Cell cycle arrest in human multidrug resistant MCF/ADR cells assessed as accumulation at G2/M phase at 0.3 uM after 24 hrs by propidium fluorescence flow cytometry; format: functional, cell-based
[27] = Cell cycle arrest in human multidrug resistant MCF/ADR cells assessed as accumulation at G2/M phase at 0.3 uM after 72 hrs by propidium fluorescence flow cytometry; format: functional, cell-based
[28] = target: Transcription factor Jun (Homo sapiens) (UniProt P05412); assay: Induction of c-Jun serine 63 phosphorylation in human multidrug resistant MCF/ADR cells at 0.3 uM; format: cell-based
MCF = assay: Induction of c-Jun expression in human drug-sensitive MCF cells at 0.3 uM; format: functional, cell-based
MCF/ADR [29] = assay: Induction of apoptosis in human multidrug resistant MCF/ADR cells assessed as accumulation of PARP at 0.3 uM after 48 hrs by immunoblot analysis; format: functional, cell-based
[30] = target: Transcription factor Jun (Homo sapiens) (UniProt P05412); assay: Reduction in induction of non phosphorylated form of c-Jun in SP600125 pretreated human multidrug resistant MCF/ADR cells at 0.3 uM after 48 hrs by immunoblot analysis; format: cell-based
MCF/ADR [31] = assay: Induction of apoptosis in human multidrug resistant MCF/ADR cells assessed as activation of caspase 7 at 0.3 uM by immunoblot analysis; format: functional, cell-based
MCF/ADR [32] = assay: Induction of apoptosis in human multidrug resistant MCF/ADR cells assessed as accumulation of PARP at 0.3 uM after 72 hrs by immunoblot analysis; format: functional, cell-based
[33] = Cell cycle arrest in human multidrug resistant MCF/ADR cells assessed as accumulation at sub G0/G1 phase at 0.3 uM after 48 hrs by propidium fluorescence flow cytometry; format: functional, cell-based
MCF/ADR [34] = assay: Inhibition of induction of apoptosis in human multidrug resistant MCF/ADR cells assessed as inhibition of cleavage of PARP at 0.3 uM after 48 hrs by immunoblot analysis in presence of caspase 9-specific inhibitor; format: functional, cell-based
MCF/ADR [35] = assay: Induction of JNK p54 isoform phosphorylation in human multidrug resistant MCF/ADR cells at 0.3 uM after 48 hrs by immunoblot analysis; format: cell-based
MDA-MB-468 = assay: Induction of apoptosis in human multidrug resistant MDA-MB-468 cells assessed as accumulation of PARP at 0.3 uM after 48 hrs by immunoblot analysis; format: functional, cell-based
MCF/ADR [36] = assay: Induction of apoptosis in human multidrug resistant MCF/ADR cells assessed as activation of caspase 9 at 0.3 uM by immunoblot analysis; format: functional, cell-based
[37] = target: Transcription factor Jun (Homo sapiens) (UniProt P05412); assay: Reduction in induction of c-Jun expression in human multidrug resistant MCF/ADR cells at 0.3 uM after 48 hrs by immunoblot analysis in presence of pan-specific caspase inhibitor; format: cell-based

Chain of Transcription factor Jun (Homo sapiens) (P05412 whole entry): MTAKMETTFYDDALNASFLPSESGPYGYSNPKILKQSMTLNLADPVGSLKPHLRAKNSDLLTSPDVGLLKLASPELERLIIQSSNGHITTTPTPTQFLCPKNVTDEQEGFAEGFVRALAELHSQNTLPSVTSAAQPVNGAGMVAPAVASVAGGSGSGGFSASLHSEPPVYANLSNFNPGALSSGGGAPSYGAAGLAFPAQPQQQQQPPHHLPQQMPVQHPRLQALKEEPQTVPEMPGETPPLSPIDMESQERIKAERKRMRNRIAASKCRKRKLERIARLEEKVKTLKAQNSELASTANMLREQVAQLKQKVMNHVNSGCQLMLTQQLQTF
Chain of Bcl-2-like protein 1 (Homo sapiens) (Q07817 whole entry): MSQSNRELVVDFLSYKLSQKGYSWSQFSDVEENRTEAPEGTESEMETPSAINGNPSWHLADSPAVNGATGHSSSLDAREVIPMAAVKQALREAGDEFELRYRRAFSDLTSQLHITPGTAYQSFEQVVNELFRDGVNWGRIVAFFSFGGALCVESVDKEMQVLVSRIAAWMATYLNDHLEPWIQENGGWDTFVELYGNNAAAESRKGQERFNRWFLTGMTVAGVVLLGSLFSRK

Which results are given for `NC(=O)c1cn([C@@H]2O[C@H](CO)[C@@H](O)[C@H]2O)c2ncnc(N)c12` [SANGIVAMYCIN]?
Activity [1]: 25%; Activity (MCF/ADR [2]): Active; Activity (MCF/ADR [3]): Active; Activity [4]: 9%; Activity [5]: 48%; Activity [6]: 27%; Activity (MCF/ADR [7]): Active; Activity (MDA-MB-231): Active; Activity [8]: Active; Activity [9]: 95%; Activity (MCF/WT [10]): Active; Activity [11]: 4%; Ki [12]: 200 µM; Activity [13]: 17%; Activity (MCF/WT [14]): inactive; IC50 [15]: 50 µM; Activity (MCF/ADR [16]): Active; Activity [17]: 9%; Activity (MCF/ADR [18]): Active; Activity [19]: Active; Activity (MCF/ADR [20]): inactive; Activity [21]: 61%; Activity [22]: 57%; Activity [23]: Active; Activity [24]: 23%; Activity (MCF/WT [25]): Active; Activity [26]: 33%; Activity [27]: 8%; Activity [28]: Active; Activity (MCF): Active; Activity (MCF/ADR [29]): Active; Activity [30]: Active; Activity (MCF/ADR [31]): Active; Activity (MCF/ADR [32]): Active; Activity [33]: 40%; Activity (MCF/ADR [34]): Active; Activity (MCF/ADR [35]): Active; Activity (MDA-MB-468): Active; Activity (MCF/ADR [36]): Active; Activity [37]: inactive
